# Data published in patent US9993494B2, “Compositions and methods for treating fibrotic disease” (eFFECTOR Therapeutics, Inc., priority 2014, dated 2018).
# System: normal human lung fibroblasts
# Experiment: Ribosomal profiling: translational efficiency in TGFβ-treated fibroblasts
# Format: cell-based
# Experimental: Ribosomal profiling allows for measurement of changes in transcription and translation on a genome-wide basis accompanying TGFβ-dependent transformation of fibroblasts to myofibroblasts. Ribosomal profiles of the TGFβ-treated fibroblasts from Example 1 (about 6×10^6 cells/10 cm plate) were prepared and analyzed for changes in translational efficiencies with respect to potential disease-associated cellular changes accompanying this TGFβ-induced transformation.
# Briefly, cells were washed with cold PBS supplemented with cycloheximide and lysed with 1× mammalian cell lysis buffer for 10 minutes on ice. Lysates were clarified by centrifugation for 10 minutes at 14,000 rpm and supernatants were collected. Cell lysates were processed to generate ribosomal protected fragments and total mRNA according to the instructions included with the ARTseq Ribosome Profiling Kit (Illumina, San Diego, Calif.). Sequencing of total RNA (RNA) and of ribosome-protected fragments of RNA (RPF) was carried out using RNA-Seq methodology according to the manufacturer's instructions (Illumina). To analyze the ribosomal profiles, RNA-Seq reads were processed with tools from the FASTX-Toolkit (fastq_quality_trimmer, fastx_clipper and fastx_trimmer). Unprocessed and processed reads were evaluated for a variety of quality measures using FastQC, and processed reads were mapped to the human genome using TopHat (see, e.g., Trapnell et al., Bioinformatics 25:1105, 2009). Gene-by-gene assessment of the number of fragments strictly and uniquely mapping to the coding region of each gene was conducted using HTSeq-count, a component of the HTSeq package. […] Genes with low counts in either RPF or RNA were excluded from differential analyses. Pathway and network analyses of differential data were conducted using Ingenuity Pathway Analysis (IPA).
smiles,measurement,setting,value
CC(C)n1nc(-c2cc3cc(O)ccc3[nH]2)c2c(N)ncnc21 [PP242],renormalizing the translational profile of RHOBTB3,"ENSG00000164292, TGFβ-treated fibroblasts",− (− = <0.9)
same,renormalizing the translational profile of HCN1,"ENSG00000164588, TGFβ-treated fibroblasts",− (− = <0.9)
same,renormalizing the translational profile of RPL36AL,"ENSG00000165502, TGFβ-treated fibroblasts",− (− = <0.9)
same,renormalizing the translational profile of RPL27A,"ENSG00000166441, TGFβ-treated fibroblasts",− (− = <0.9)
same,renormalizing the translational profile of RP11-382A20.3.1,"ENSG00000166503, TGFβ-treated fibroblasts",− (− = <0.9)
same,renormalizing the translational profile of ANKDD1A,"ENSG00000166839, TGFβ-treated fibroblasts",+ (+ = 0.9 to 1.5)
same,renormalizing the translational profile of RPL13,"ENSG00000167526, TGFβ-treated fibroblasts",− (− = <0.9)
same,renormalizing the translational profile of EEF2,"ENSG00000167658, TGFβ-treated fibroblasts",+ (+ = 0.9 to 1.5)
same,renormalizing the translational profile of CA5B,"ENSG00000169239, TGFβ-treated fibroblasts",+ (+ = 0.9 to 1.5)
same,renormalizing the translational profile of MURC,"ENSG00000170681, TGFβ-treated fibroblasts",− (− = <0.9)
same,renormalizing the translational profile of HTRA3,"ENSG00000170801, TGFβ-treated fibroblasts",− (− = <0.9)
same,renormalizing the translational profile of PDE7B,"ENSG00000171408, TGFβ-treated fibroblasts",− (− = <0.9)
same,renormalizing the translational profile of LPAR3,"ENSG00000171517, TGFβ-treated fibroblasts",− (− = <0.9)
same,renormalizing the translational profile of CTPS,"ENSG00000171793, TGFβ-treated fibroblasts",− (− = <0.9)
same,renormalizing the translational profile of QARS,"ENSG00000172053, TGFβ-treated fibroblasts",− (− = <0.9)
same,renormalizing the translational profile of RPL38,"ENSG00000172809, TGFβ-treated fibroblasts",− (− = <0.9)
same,renormalizing the translational profile of MRPL45,"ENSG00000174100, TGFβ-treated fibroblasts",+ (+ = 0.9 to 1.5)
same,renormalizing the translational profile of RPL4,"ENSG00000174444, TGFβ-treated fibroblasts",− (− = <0.9)
same,renormalizing the translational profile of RPL15,"ENSG00000174748, TGFβ-treated fibroblasts",− (− = <0.9)
same,renormalizing the translational profile of DES,"ENSG00000175084, TGFβ-treated fibroblasts",− (− = <0.9)
same,renormalizing the translational profile of EIF3F,"ENSG00000175390, TGFβ-treated fibroblasts",− (− = <0.9)
same,renormalizing the translational profile of CLCF1,"ENSG00000175505, TGFβ-treated fibroblasts",− (− = <0.9)
same,renormalizing the translational profile of AMIGO3,"ENSG00000176020, TGFβ-treated fibroblasts",− (− = <0.9)
same,renormalizing the translational profile of C14orf49,"ENSG00000176438, TGFβ-treated fibroblasts",− (− = <0.9)
same,renormalizing the translational profile of RPLP2,"ENSG00000177600, TGFβ-treated fibroblasts",− (− = <0.9)
same,renormalizing the translational profile of IMPDH2,"ENSG00000178035, TGFβ-treated fibroblasts",− (− = <0.9)
same,renormalizing the translational profile of DNAJC22,"ENSG00000178401, TGFβ-treated fibroblasts",+ (+ = 0.9 to 1.5)
same,renormalizing the translational profile of RPL35A,"ENSG00000182899, TGFβ-treated fibroblasts",+ (+ = 0.9 to 1.5)
same,renormalizing the translational profile of LENG9,"ENSG00000182909, TGFβ-treated fibroblasts",− (− = <0.9)
same,renormalizing the translational profile of C22orf32,"ENSG00000183172, TGFβ-treated fibroblasts",− (− = <0.9)
same,renormalizing the translational profile of NPW,"ENSG00000183971, TGFβ-treated fibroblasts",− (− = <0.9)
same,renormalizing the translational profile of PDE4B,"ENSG00000184588, TGFβ-treated fibroblasts",− (− = <0.9)
same,renormalizing the translational profile of ROBO2,"ENSG00000185008, TGFβ-treated fibroblasts",− (− = <0.9)
same,renormalizing the translational profile of PTCH1,"ENSG00000185920, TGFβ-treated fibroblasts",− (− = <0.9)
same,renormalizing the translational profile of POLR1D,"ENSG00000186184, TGFβ-treated fibroblasts",− (− = <0.9)
same,renormalizing the translational profile of DYNC2H1,"ENSG00000187240, TGFβ-treated fibroblasts",− (− = <0.9)
same,renormalizing the translational profile of RPL14,"ENSG00000188846, TGFβ-treated fibroblasts",− (− = <0.9)
same,renormalizing the translational profile of LRRK2,"ENSG00000188906, TGFβ-treated fibroblasts",− (− = <0.9)
same,renormalizing the translational profile of NACA,"ENSG00000196531, TGFβ-treated fibroblasts",− (− = <0.9)
same,renormalizing the translational profile of LAMB3,"ENSG00000196878, TGFβ-treated fibroblasts",− (− = <0.9)
same,renormalizing the translational profile of PCBP2,"ENSG00000197111, TGFβ-treated fibroblasts",− (− = <0.9)
same,renormalizing the translational profile of MAP3K5,"ENSG00000197442, TGFβ-treated fibroblasts",− (− = <0.9)
same,renormalizing the translational profile of RPL37A,"ENSG00000197756, TGFβ-treated fibroblasts",− (− = <0.9)
same,renormalizing the translational profile of RPL12,"ENSG00000197958, TGFβ-treated fibroblasts",− (− = <0.9)
same,renormalizing the translational profile of LPAR1,"ENSG00000198121, TGFβ-treated fibroblasts",− (− = <0.9)
same,renormalizing the translational profile of RPL23A,"ENSG00000198242, TGFβ-treated fibroblasts",− (− = <0.9)
same,renormalizing the translational profile of PLN,"ENSG00000198523, TGFβ-treated fibroblasts",− (− = <0.9)
same,renormalizing the translational profile of RPL10A,"ENSG00000198755, TGFβ-treated fibroblasts",− (− = <0.9)
same,renormalizing the translational profile of CES1,"ENSG00000198848, TGFβ-treated fibroblasts",− (− = <0.9)
same,renormalizing the translational profile of RPL39,"ENSG00000198918, TGFβ-treated fibroblasts",− (− = <0.9)
same,renormalizing the translational profile of CARD16,"ENSG00000204397, TGFβ-treated fibroblasts",− (− = <0.9)
same,renormalizing the translational profile of GNB2L1,"ENSG00000204628, TGFβ-treated fibroblasts",+ (+ = 0.9 to 1.5)
same,renormalizing the translational profile of RPL17,"ENSG00000215472, TGFβ-treated fibroblasts",− (− = <0.9)
same,renormalizing the translational profile of RPL41,"ENSG00000229117, TGFβ-treated fibroblasts",− (− = <0.9)
same,renormalizing the translational profile of ARPC1A,"ENSG00000241685, TGFβ-treated fibroblasts",− (− = <0.9)
same,renormalizing the translational profile of CHCHD10,"ENSG00000250479, TGFβ-treated fibroblasts",+++ (+++ = >2.0)
same,renormalizing the translational profile of EEF1G,"ENSG00000254772, TGFβ-treated fibroblasts",− (− = <0.9)
same,number of the 141 eIF2 pathway genes that moved toward normal,"TGFβ and PP242, of 141 genes, FIG. 8",104
same,"number of the 12 eIF2 signaling pathway genes that moved toward the untransformed, normal state","TGFβ and PP242, out of 12 genes, FIG. 7",11
same,effect in renormalizing the translational profile of the gene,"gene RPS2 (ENSG00000140988), TGFβ-treated fibroblasts",− (− = <0.9)
same,effect in renormalizing the translational profile of the gene,"gene RPS3 (ENSG00000149273), TGFβ-treated fibroblasts",− (− = <0.9)
same,effect in renormalizing the translational profile of the gene,"gene RPS3A (ENSG00000145425), TGFβ-treated fibroblasts",− (− = <0.9)
same,effect in renormalizing the translational profile of the gene,"gene RPS4X (ENSG00000198034), TGFβ-treated fibroblasts",− (− = <0.9)
same,effect in renormalizing the translational profile of the gene,"gene RPS4Y1 (ENSG00000129824), TGFβ-treated fibroblasts",− (− = <0.9)
same,effect in renormalizing the translational profile of the gene,"gene RPS5 (ENSG00000083845), TGFβ-treated fibroblasts",− (− = <0.9)
same,effect in renormalizing the translational profile of the gene,"gene RPS6 (ENSG00000137154), TGFβ-treated fibroblasts",− (− = <0.9)
